Source: paper doi:10.1101/2023.11.24.568596v1 (biorxiv, 2023)
Each block holds one compound with its values, some of them ahead of it.

Experiments:
Conditions in all cases: binder
[1] = target: OSR1 (Homo sapiens, UniProt O95747)
[2] = target: T1, TLK1 (Homo sapiens, UniProt Q9UKI8)
T1 sequence (Q9UKI8 1-766): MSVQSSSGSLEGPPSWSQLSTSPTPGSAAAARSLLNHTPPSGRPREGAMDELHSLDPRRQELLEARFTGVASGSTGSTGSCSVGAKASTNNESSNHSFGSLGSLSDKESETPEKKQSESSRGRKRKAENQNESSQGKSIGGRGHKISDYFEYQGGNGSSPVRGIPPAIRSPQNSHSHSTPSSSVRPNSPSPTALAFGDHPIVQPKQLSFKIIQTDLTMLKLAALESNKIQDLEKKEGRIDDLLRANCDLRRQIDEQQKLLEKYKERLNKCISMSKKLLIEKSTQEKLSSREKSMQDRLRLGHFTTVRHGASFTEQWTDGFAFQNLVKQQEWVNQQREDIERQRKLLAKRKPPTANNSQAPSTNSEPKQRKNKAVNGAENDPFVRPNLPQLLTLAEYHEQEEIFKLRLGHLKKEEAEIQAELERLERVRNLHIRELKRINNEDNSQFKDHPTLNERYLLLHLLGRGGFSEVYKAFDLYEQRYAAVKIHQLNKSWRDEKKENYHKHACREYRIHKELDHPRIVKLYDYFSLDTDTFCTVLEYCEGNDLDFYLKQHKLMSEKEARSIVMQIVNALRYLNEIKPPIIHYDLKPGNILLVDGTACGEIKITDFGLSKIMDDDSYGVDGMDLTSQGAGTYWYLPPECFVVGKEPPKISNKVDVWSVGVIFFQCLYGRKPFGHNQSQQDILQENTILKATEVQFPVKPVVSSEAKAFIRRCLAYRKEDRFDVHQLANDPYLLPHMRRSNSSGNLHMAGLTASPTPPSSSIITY

[3] = target: T2, Erk7 (Homo sapiens, UniProt Q8TD08)
T2 sequence (Q8TD08 1-544): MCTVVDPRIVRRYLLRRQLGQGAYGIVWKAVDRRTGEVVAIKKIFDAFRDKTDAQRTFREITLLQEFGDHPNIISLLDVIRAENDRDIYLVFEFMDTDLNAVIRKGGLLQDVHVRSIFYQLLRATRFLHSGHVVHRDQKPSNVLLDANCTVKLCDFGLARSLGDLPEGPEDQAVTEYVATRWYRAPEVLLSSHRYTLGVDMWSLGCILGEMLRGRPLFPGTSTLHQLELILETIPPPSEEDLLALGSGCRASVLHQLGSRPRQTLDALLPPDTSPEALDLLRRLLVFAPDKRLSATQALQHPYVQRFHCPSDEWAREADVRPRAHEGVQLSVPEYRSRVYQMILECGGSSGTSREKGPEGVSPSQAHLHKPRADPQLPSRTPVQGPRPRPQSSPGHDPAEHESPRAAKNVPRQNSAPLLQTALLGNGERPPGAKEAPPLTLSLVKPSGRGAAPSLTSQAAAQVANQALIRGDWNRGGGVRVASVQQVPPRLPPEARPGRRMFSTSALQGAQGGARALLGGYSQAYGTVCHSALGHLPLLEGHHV

[4] = target: T3, PHKG2 (Homo sapiens, UniProt P15735)
T3 sequence (P15735 1-406): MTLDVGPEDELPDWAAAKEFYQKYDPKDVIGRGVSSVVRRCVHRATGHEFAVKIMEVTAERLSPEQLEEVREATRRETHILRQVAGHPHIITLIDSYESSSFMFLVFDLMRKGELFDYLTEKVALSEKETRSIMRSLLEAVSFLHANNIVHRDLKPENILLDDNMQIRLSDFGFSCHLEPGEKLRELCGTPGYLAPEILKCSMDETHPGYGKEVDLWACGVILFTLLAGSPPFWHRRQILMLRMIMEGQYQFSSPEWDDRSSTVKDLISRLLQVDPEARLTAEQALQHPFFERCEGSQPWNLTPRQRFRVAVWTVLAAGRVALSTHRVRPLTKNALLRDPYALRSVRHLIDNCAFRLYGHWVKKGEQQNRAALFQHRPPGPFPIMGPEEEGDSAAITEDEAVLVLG

[5] = target: PCTAIRE1 (Homo sapiens, UniProt Q00536)
[6] = target: CK1e (Homo sapiens, UniProt P49674)
[7] = target: ABL1 (Homo sapiens, UniProt P00519)
[8] = target: LOK (Homo sapiens, UniProt O94804)
[9] = target: FGFR2 (Homo sapiens, UniProt P21802)
[10] = target: CaMK1d (Homo sapiens, UniProt Q8IU85)
[11] = target: CDKL1 (Homo sapiens, UniProt Q00532)
Chain of CDKL1 (Q00532 whole entry): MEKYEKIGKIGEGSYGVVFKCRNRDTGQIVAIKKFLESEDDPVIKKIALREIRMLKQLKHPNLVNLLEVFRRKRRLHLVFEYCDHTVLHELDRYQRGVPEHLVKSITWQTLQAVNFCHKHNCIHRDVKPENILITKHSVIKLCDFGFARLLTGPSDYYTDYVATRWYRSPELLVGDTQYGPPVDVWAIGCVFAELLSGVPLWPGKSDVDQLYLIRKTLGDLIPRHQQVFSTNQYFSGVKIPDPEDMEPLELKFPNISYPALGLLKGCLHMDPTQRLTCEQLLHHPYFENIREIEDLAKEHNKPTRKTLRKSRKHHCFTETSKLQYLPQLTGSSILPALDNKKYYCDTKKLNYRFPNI

Chain of OSR1 (O95747 whole entry): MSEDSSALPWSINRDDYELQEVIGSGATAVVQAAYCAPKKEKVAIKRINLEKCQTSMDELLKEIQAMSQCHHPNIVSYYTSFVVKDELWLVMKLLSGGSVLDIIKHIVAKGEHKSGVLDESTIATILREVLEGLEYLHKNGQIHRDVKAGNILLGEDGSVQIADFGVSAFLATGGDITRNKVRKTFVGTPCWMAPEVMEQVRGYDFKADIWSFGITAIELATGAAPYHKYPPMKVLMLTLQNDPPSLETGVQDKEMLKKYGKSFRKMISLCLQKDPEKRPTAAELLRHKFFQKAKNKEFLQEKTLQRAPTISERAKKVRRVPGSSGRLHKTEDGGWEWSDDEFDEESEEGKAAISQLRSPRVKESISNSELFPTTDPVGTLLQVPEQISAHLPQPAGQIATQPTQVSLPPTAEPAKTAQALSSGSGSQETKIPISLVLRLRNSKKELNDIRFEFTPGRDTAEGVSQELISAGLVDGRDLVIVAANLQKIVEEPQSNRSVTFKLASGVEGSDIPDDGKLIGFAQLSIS
Chain of CK1e (P49674 whole entry): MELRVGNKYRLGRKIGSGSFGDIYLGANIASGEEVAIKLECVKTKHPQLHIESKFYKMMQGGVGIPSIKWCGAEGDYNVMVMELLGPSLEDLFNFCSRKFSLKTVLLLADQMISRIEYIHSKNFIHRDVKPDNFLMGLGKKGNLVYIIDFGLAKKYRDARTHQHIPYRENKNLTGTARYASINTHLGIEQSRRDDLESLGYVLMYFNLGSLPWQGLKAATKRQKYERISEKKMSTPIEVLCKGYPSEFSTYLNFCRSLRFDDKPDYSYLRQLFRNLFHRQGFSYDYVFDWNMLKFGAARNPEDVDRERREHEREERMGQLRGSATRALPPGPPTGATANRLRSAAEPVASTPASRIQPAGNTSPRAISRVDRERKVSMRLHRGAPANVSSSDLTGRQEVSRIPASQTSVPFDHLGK
Chain of PCTAIRE1 (Q00536 whole entry): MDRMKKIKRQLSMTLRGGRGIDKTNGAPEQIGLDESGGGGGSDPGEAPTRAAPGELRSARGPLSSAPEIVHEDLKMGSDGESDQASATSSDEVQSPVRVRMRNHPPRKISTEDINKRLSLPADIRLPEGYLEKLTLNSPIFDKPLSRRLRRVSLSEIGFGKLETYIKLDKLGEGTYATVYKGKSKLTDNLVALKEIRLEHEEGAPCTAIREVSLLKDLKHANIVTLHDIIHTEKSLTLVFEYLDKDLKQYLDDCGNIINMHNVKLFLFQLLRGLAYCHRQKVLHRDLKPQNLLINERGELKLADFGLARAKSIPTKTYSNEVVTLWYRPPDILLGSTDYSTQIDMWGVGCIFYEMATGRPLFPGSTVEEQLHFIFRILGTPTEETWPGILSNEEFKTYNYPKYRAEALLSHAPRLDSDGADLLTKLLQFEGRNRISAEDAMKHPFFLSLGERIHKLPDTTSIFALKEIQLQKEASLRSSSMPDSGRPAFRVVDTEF
Chain of CaMK1d (Q8IU85 whole entry): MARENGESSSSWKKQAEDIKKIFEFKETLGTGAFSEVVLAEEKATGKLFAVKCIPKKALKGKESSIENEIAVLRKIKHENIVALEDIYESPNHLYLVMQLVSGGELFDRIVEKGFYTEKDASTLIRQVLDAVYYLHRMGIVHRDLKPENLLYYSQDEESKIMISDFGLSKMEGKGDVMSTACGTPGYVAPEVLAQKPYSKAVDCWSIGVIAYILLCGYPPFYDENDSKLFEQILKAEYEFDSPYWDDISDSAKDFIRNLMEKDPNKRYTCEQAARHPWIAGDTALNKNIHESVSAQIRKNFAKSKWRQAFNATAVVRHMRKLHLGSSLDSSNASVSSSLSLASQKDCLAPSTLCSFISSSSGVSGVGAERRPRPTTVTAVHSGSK
Chain of FGFR2 (P21802 whole entry): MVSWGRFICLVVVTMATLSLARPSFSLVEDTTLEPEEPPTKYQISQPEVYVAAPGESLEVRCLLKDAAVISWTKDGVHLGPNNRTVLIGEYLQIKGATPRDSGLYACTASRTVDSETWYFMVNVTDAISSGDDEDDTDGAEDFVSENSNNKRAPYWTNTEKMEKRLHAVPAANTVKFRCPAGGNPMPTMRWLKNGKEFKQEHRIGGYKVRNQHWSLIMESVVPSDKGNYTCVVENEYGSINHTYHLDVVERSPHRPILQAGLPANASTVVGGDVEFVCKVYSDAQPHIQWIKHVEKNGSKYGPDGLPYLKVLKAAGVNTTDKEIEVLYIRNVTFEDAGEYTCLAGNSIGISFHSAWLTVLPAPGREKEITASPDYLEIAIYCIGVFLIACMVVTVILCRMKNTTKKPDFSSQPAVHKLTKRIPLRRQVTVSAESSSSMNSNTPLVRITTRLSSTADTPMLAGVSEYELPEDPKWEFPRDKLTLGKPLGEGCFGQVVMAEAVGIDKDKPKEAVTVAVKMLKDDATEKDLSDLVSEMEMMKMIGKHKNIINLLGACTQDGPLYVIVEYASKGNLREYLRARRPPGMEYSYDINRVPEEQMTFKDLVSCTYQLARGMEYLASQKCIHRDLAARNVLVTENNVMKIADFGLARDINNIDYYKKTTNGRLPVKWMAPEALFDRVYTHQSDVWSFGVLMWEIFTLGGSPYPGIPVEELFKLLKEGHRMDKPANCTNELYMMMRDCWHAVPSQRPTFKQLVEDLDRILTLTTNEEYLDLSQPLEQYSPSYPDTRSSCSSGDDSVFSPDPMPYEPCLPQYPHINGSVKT
Chain of ABL1 (P00519 whole entry): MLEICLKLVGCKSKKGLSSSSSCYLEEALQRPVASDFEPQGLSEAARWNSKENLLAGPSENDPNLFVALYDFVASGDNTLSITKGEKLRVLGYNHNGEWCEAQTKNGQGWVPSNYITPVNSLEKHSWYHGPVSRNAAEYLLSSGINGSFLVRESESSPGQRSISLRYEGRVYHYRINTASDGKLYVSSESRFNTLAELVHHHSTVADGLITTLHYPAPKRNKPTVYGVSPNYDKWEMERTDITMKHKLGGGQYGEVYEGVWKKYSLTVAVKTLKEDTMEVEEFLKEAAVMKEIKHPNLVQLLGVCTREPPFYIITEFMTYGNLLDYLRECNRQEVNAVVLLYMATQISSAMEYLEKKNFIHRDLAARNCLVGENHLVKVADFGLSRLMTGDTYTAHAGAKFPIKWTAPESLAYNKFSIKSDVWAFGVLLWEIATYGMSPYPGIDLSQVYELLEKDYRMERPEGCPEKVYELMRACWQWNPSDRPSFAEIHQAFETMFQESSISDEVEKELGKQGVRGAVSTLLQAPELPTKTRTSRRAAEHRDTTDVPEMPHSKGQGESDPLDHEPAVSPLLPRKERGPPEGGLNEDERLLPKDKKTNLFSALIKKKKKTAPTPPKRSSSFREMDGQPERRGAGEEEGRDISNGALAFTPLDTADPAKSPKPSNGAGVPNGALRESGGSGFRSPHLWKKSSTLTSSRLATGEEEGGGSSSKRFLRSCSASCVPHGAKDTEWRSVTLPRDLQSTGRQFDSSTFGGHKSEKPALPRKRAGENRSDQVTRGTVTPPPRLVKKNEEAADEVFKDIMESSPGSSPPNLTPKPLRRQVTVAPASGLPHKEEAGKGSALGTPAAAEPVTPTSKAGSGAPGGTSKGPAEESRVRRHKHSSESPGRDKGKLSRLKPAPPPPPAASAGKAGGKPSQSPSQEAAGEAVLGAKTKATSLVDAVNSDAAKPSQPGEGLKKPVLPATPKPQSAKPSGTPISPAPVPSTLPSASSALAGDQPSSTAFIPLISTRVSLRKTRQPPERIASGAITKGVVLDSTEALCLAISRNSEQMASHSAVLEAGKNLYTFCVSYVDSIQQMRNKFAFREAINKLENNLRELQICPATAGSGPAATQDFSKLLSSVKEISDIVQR

dTm 33 [1]: 2.4 °C
dTm 33 [2]: -0.8 °C
dTm 33 [4]: 6.2 °C
dTm 33 [5]: 5.2 °C
dTm 33 [6]: 6.9 °C
dTm 33 [7]: 10.6 °C
dTm 33 [8]: -0.3 °C
dTm 33 [9]: 3.3 °C
dTm 33 [10]: 5.9 °C
dTm 33 [11]: 2.0 °C
Structure (SMILES): Cc1cccc(-c2ccc(-c3cc4cnc(Nc5ccc(F)c(CO)c5)nc4n(CCCCN)c3=O)c(Cl)c2)n1 [compound 33, 8-(4-Aminobutyl)-6-(2-chloro-4-(6-methylpyridin-2-yl)phenyl)-2-((4-fluoro-3-(hydroxymethyl)phenyl)amino)pyrido[2,3-d]pyrimidin-7(8H)-one]
dTm 33 [3]: 1.6 °C

dTm 34 [1]: 0.4 °C
dTm 34 [2]: -1.1 °C
dTm 34 [4]: 3.5 °C
dTm 34 [5]: 0.6 °C
dTm 34 [6]: 6.5 °C
dTm 34 [7]: 5.2 °C
dTm 34 [8]: -0.3 °C
dTm 34 [9]: 2.0 °C
dTm 34 [10]: 3.9 °C
dTm 34 [11]: 1.5 °C
Structure (SMILES): COc1ccc(O)c(Nc2ncc3cc(-c4ccc(-c5cccc(C)n5)cc4Cl)c(=O)n(CCCCN)c3n2)c1 [compound 34, 8-(4-Aminobutyl)-6-(2-chloro-4-(6-methylpyridin-2-yl)phenyl)-2-((2-hydroxy-5-methoxy-phenyl)amino)pyrido[2,3-d]pyrimidin-7(8H)-one]
dTm 34 [3]: -0.4 °C

dTm 35 [1]: 2.6 °C
dTm 35 [2]: -2.5 °C
dTm 35 [4]: 8.8 °C
dTm 35 [5]: 0.1 °C
dTm 35 [6]: 6.6 °C
dTm 35 [7]: 5.8 °C
dTm 35 [8]: -0.8 °C
dTm 35 [9]: 2.4 °C
dTm 35 [10]: 5.8 °C
dTm 35 [11]: 0.3 °C
Structure (SMILES): COc1cc(N2CCOCC2)ccc1Nc1ncc2cc(-c3ccc(-c4cccc(C)n4)cc3Cl)c(=O)n(CCCCN)c2n1 [compound 35, 8-(4-Aminobutyl)-6-(2-chloro-4-(6-methylpyridin-2-yl)phenyl)-2-((2-methoxy-4-morpholino-phenyl)amino)pyrido[2,3-d]pyrimidin-7(8H)-one]
dTm 35 [3]: 1.1 °C

dTm 36 [1]: 3.4 °C
dTm 36 [2]: -1.9 °C
dTm 36 [4]: 8.0 °C
dTm 36 [5]: 0.2 °C
dTm 36 [6]: 5.1 °C
dTm 36 [7]: 5.0 °C
dTm 36 [8]: -0.4 °C
dTm 36 [9]: 2.9 °C
dTm 36 [10]: 5.6 °C
dTm 36 [11]: 0.8 °C
Structure (SMILES): COc1cc(N2CCN(C)CC2)ccc1Nc1ncc2cc(-c3ccc(-c4cccc(C)n4)cc3Cl)c(=O)n(CCCCN)c2n1 [compound 36, 8-(4-Aminobutyl)-6-(2-chloro-4-(6-methylpyridin-2-yl)phenyl)-2-((2-methoxy-4-(4-methylpiperazin-1-yl)phenyl)amino)pyrido[2,3-d]pyrimidin-7(8H)-one]
dTm 36 [3]: -0.5 °C
